{
  "source": "patent US20100311717A1",
  "about": "“METHODS AND COMPOSITIONS FOR RETARDING WEIGHT GAIN ASSOCIATED WITH USE OF ATYPICAL ANTIPSYCHOTIC DRUGS” (priority 2007, published 2010)",
  "key": {"[1]": {"conditions": "macroprolactinomas; cited from earlier work"}, "[2]": {"conditions": "in vivo; cited from earlier work"}, "[3]": {"conditions": "in vivo; cited from earlier work", "remark": "listed apart in the source"}, "[4]": {"assay": "Clinical cases: appetite / hunger", "conditions": "Example 10, olanzapine 2.5 mg HS"}, "[5]": {"conditions": "Parkinson's disease, 3.5-4.5 mg/day; decreased when the dose was lowered; cited from earlier work"}, "[6]": {"conditions": "bipolar II, 6 weeks, n=10; cited from earlier work"}, "[7]": {"conditions": "cited from earlier work"}, "[8]": {"conditions": "in vivo; cited from earlier work", "remark": "listed apart in the source"}, "[9]": {"assay": "not given", "remark": "listed apart in the source"}, "[10]": {"tested_on": "cytochrome p450 (CPY) system", "conditions": "cited from earlier work"}, "[11]": {"assay": "Clinical cases: galactorrhea", "conditions": "Example 2, risperidone 2 mg per day"}, "D3": {"molecular_target": "D3 (Homo sapiens, UniProt P35462)", "sequence (P35462 whole entry)": "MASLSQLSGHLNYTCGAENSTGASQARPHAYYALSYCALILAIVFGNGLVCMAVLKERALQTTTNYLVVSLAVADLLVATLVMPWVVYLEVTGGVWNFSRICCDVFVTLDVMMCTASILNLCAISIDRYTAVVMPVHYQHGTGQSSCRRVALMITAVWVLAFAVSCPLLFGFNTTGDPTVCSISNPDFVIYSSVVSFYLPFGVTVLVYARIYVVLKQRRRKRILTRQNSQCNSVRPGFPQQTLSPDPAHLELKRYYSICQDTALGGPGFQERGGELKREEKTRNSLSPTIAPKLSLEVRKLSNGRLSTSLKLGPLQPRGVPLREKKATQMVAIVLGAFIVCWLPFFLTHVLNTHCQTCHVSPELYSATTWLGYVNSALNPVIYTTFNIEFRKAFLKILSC", "conditions": "cited from earlier work"}, "[12]": {"conditions": "Example 9, pramipexole 0.25 mg AM & HS with quetiapine"}, "[13]": {"conditions": "Example 12, approximately two months on pramipexole, same as before starting"}},
  "note": "Like-named read-outs stand apart in the source and are kept apart here.",
  "data": [
    {"smiles": "CCCN1CC(NS(=O)(=O)N(CC)CC)CC2Cc3c(O)cccc3CC21", "note": "(centres unmarked) [Quinagolide, quinagolide]", "values": [
      {"measurement": "patients with significant weight loss", "setting": "[1]", "result": "11 of 12"},
      {"measurement": "half-life", "setting": "[2]", "result": 24, "unit": "h"}
    ]},
    {"smiles": "CC(C)C[C@H]1C(=O)N2CCC[C@H]2[C@]2(O)O[C@](NC(=O)[C@@H]3C=C4c5cccc6[nH]c(Br)c(c56)C[C@H]4N(C)C3)(C(C)C)C(=O)N12", "note": "[bromocriptine]", "values": [
      {"measurement": "abdominal cramps", "setting": "[3]", "result": 4, "unit": "%"},
      {"measurement": "constipation", "setting": "[3]", "result": 3, "unit": "%"},
      {"measurement": "diarrhea", "setting": "[3]", "result": 3, "unit": "%"},
      {"measurement": "dizziness", "setting": "[3]", "result": 17, "unit": "%"},
      {"measurement": "drowsiness", "setting": "[3]", "result": 3, "unit": "%"},
      {"measurement": "fatigue", "setting": "[3]", "result": 7, "unit": "%"},
      {"measurement": "headache", "setting": "[3]", "result": 19, "unit": "%"},
      {"measurement": "incidence of adverse effects", "setting": "[3]", "result": 69, "unit": "%"},
      {"measurement": "lightheadedness", "setting": "[3]", "result": 5, "unit": "%"},
      {"measurement": "nasal congestion", "setting": "[3]", "result": 3, "unit": "%"},
      {"measurement": "nausea", "setting": "[3]", "result": 49, "unit": "%"},
      {"measurement": "patients in whom therapy was discontinued because of adverse effects", "setting": "[3]", "result": "approximately 5%"},
      {"measurement": "vomiting", "setting": "[3]", "result": 5, "unit": "%"}
    ]},
    {"smiles": "Cc1cc2c(s1)Nc1ccccc1N=C2N1CCN(C)CC1", "note": "[olanzapine]", "values": [
      {"measurement": "appetite", "setting": "[4]", "result": "marked increase in appetite"}
    ]},
    {"smiles": "CCCN[C@H]1CCc2nc(N)sc2C1", "note": "[pramipexole]", "values": [
      {"measurement": "effect on weight", "setting": "[5]", "result": "caused weight gain"},
      {"measurement": "subjects who developed hypomanic symptoms", "setting": "[6]", "result": "One"},
      {"measurement": "weight lost", "setting": "Example 1, pramipexole 0.25 mg twice per day with olanzapine 20 mg per day", "result": 11, "unit": "pounds"},
      {"measurement": "weight after treatment", "setting": "Example 1, pramipexole 0.25 mg twice per day with olanzapine 20 mg per day, from 187 pounds", "result": 176, "unit": "pounds"},
      {"measurement": "weight maintained at", "setting": "Example 3, olanzapine 10 mg per day with pramipexole up to 0.75 mg per day, prednisone 5 mg per day added", "result": 202, "unit": "pounds"},
      {"measurement": "weight after restarting pramipexole", "setting": "Example 4, 0.25 mg twice daily, within the next two weeks", "result": 174, "unit": "pounds"},
      {"measurement": "weight maintained at", "setting": "Example 4, olanzapine 5 mg per day with pramipexole 0.25 mg twice per day", "result": 168, "unit": "pounds"},
      {"measurement": "weight after discontinuing pramipexole", "setting": "Example 4, within one week, on olanzapine 5 mg per day", "result": 181, "unit": "pounds"},
      {"measurement": "weight after treatment", "setting": "Example 5, pramipexole increased to 0.25 mg per day, after 6 weeks", "result": 154, "unit": "pounds"},
      {"measurement": "weight after discontinuing pramipexole", "setting": "Example 6", "result": 250, "unit": "pounds"},
      {"measurement": "weight after treatment", "setting": "Example 6, pramipexole 0.25 mg per day, from 247 pounds", "result": 244, "unit": "pounds"},
      {"measurement": "weight after treatment", "setting": "Example 7, pramipexole 0.25 mg per day, later", "result": 212, "unit": "pounds"},
      {"measurement": "weight after treatment", "setting": "Example 7, pramipexole increased to 0.25 mg per day, in two weeks", "result": 214, "unit": "pounds"},
      {"measurement": "weight maintained at", "setting": "Example 8, olanzapine 15 mg per day with pramipexole 0.25 mg TID", "result": 259, "unit": "pounds"},
      {"measurement": "weight decreased by", "setting": "[12]", "result": 3, "unit": "pounds"},
      {"measurement": "weight maintained at", "setting": "[12]", "result": 157, "unit": "pounds"},
      {"measurement": "weight gained", "setting": "Example 11, pramipexole 0.25 mg AM & HS for 3 weeks, with quetiapine", "result": 5, "unit": "pounds"},
      {"measurement": "weight after treatment", "setting": "Example 12, pramipexole 0.25 mg twice per day", "result": 172, "unit": "pounds"},
      {"measurement": "weight after treatment", "setting": "Example 13, pramipexole up to 0.25 mg twice per day, from 132 pounds", "result": 127, "unit": "pounds"},
      {"measurement": "weight lost", "setting": "Example 13, pramipexole up to 0.25 mg twice per day, in three weeks", "result": 5, "unit": "pounds"},
      {"measurement": "weight maintained at", "setting": "Example 14, olanzapine 10 mg per day with pramipexole 0.25 mg twice per day, several months", "result": 312, "unit": "pounds"},
      {"measurement": "increase in anxiety", "setting": "[7]; early in the dose escalation", "result": "18 of 38"},
      {"measurement": "nausea reported", "setting": "[7]; fibromyalgia, 14 week study", "result": 79, "unit": "%"},
      {"measurement": "excreted unchanged in the urine", "setting": "[8]", "result": 90, "unit": "%"},
      {"measurement": "triglycerides after pramipexole", "setting": "[9]; Example 7, pre-pramipexole 2.88 mmol/L", "result": 2.4, "unit": "mmol/L"},
      {"measurement": "cholesterol after pramipexole", "setting": "[9]; Example 7, pre-pramipexole 6.6 mmol/L", "result": 5.6, "unit": "mmol/L"},
      {"measurement": "cholesterol", "setting": "[9]; [13]", "result": 7.5, "unit": "mmol/L"},
      {"measurement": "fasting blood sugar (FBS)", "setting": "[9]; [13]", "result": 6.6, "unit": "mmol/L"},
      {"measurement": "triglycerides", "setting": "[9]; [13]", "result": 3.6, "unit": "mmol/L"},
      {"measurement": "interaction with the cytochrome p450 system", "setting": "[10]", "result": "does not interact"}
    ]},
    {"smiles": "C[C@]12C=CC(=O)C=C1CC[C@@H]1[C@@H]2C(=O)C[C@@]2(C)[C@H]1CC[C@]2(O)C(=O)CO", "note": "[prednisone]", "values": [
      {"measurement": "weight after treatment", "setting": "human, in vivo", "result": 185, "unit": "pounds"}
    ]},
    {"smiles": "Cc1nc2n(c(=O)c1CCN1CCC(c3noc4cc(F)ccc34)CC1)CCCC2", "note": "[risperidone]", "values": [
      {"measurement": "galactorrhea", "setting": "[11]", "result": "developed galactorrhea"}
    ]},
    {"smiles": "CCCN(CCC)CCc1cccc2c1CC(=O)N2", "note": "[ropinirole]", "values": [
      {"measurement": "D3 affinity relative to pramipexole", "setting": "D3", "result": "less D3 affinity"},
      {"measurement": "interaction with the cytochrome p450 system", "setting": "[10]", "result": "p450 interactions"}
    ]}
  ]
}
